Source: US7063946B2, “Methods, reagents, kits and apparatus for protein function analysis” (Meso Scale Technologies, LLC., priority 2001, dated 2006)
pIC50: −log10 of the molar value.

Experiments:
BTK = target: T1, BTK (Homo sapiens, UniProt Q06187); test: Kinase inhibitor profiling, pEY phosphorylation; format: biochemical
T1 construct: specificity data for proteins generated from a library of eighteen full-length clones; host or cells: rabbit reticulocyte lysate, TnT coupled in vitro transcription/translation (cell-free)
T1 sequence (Q06187 whole entry): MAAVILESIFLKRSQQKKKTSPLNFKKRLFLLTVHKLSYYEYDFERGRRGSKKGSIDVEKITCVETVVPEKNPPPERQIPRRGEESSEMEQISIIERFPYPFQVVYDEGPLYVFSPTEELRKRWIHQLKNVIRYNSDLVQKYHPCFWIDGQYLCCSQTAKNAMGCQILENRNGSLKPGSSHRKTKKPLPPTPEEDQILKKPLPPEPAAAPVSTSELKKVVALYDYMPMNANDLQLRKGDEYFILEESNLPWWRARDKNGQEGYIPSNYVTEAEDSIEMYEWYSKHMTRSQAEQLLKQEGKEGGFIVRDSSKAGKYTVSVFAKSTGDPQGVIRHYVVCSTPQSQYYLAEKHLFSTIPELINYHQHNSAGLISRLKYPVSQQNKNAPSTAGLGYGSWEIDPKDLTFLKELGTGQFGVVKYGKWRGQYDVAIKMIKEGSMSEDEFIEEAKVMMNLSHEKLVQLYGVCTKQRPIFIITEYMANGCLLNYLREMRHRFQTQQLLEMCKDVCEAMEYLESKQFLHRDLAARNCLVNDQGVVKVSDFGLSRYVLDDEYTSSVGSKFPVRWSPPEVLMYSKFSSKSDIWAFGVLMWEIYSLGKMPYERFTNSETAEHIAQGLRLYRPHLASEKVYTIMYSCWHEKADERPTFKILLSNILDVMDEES
Method: (§1) Proteins were produced in an in vitro transcription and translation reaction. […] The unbound components of the reaction containing endogenous kinases were removed by three washes with TT-buffer (25 mM Tris-HCl buffer pH 7.4 and 0.004% Triton), two five minutes washings with high-salt wash buffer (25 mM Tris-HCl buffer pH 7.4, 0.004% Triton, 1M NaCl and 5 mM DTT) and 3 more washes with TT-buffer. To these immobilized and purified proteins a tyrosine kinase substrate, 5 nM pEY (poly Glu-Tyr, Sigma, MO), was added in a 50 μl reaction solution containing 5 mM MgCl2, 5 mM MnCl2, 100 μM ATP, 25 mM Tris-HCl buffer pH 7.4, 0.05 mM Na3VO4, 0.004% TritonX-100, 2 mM DTT and EDTA-free protease inhibitor (Roche Molecular Biochemicals). This mixture was incubated with shaking at room temperature overnight to allow phosphorylation of the pEY substrate by the immobilized kinases. Following this incubation, 45 μl of this mixture was transferred to a streptavidin or avidin-coated NPT IPR plate coated with biotinylated anti-phosphotyrosine antibody (PY20, Zymed labs, CA) followed by incubation for 30 minutes at room temperature to allow the binding of the phosphorylated pEY substrate to the PY20 coated NPT plate. Following this binding step, 50 ng Sulfo-TAG labeled anti-phosphotyrosine in buffer containing 25 mM Tris-HCl buffer pH 7.4, 5 mM MgCl2, 0.05 mM Na3VO4, 0.004% TritonX-100, 2 mM DTT and 0.05% IgG was added followed by incubation at room temperature for 30 mm. The unbound reagents were removed by one time washing with water, and the TAG label was detected in presence of 150 μl IPR assay buffer (0.4 mM Gly-Gly buffer, pH 7.8, 1 mM EDTA, 0.1 M TPA). The ECL signals were measured using an imaging plate reader.
(§2) The unbound components of the translation reaction (including any endogenous kinases) were removed by 3 washes with TT-buffer (25 mM Tris-HCl buffer pH 7.4 and 0.004% Triton), two five minutes washes with high-salt wash buffer (25 mM Tris-HCl buffer pH 7.4, 0.004% Triton, 1M NaCl and 5 mM DTT) and 3 washes with TT-buffer. […] The mixture was incubated at room temperature for 10 mm before starting the kinase reaction by adding 25 μl of 200 μM ATP in buffer A. This mixture was incubated with intermittent shaking at room temperature for 2 hours to overnight to allow (a) phosphorylation of the pEY substrate and (b) autophosphorylation of the immobilized kinases. Autophosphorylation and phosphorylation of the pEY was measured as described in Examples 7 and 8.
(§3) The ECL signal in control wells produced by tyrosine kinases was compared to the wells containing inhibitor compounds.

[1] = test system: tyrosine kinases reported to be the target of each inhibitor; conditions: read-out: reported IC50 concentration (1× concentration); for the kinase reported to be the target of the inhibitor; cited from earlier work
Kdr = target: T2, Kdr (Mus musculus, UniProt P35918); test: Kinase inhibitor profiling, pEY phosphorylation; format: biochemical
T2 construct: specificity data for proteins generated from a library of eighteen full-length clones; biotin on random lysines (biotin-Lys-tRNA); host or cells: rabbit reticulocyte lysate, coupled transcription/translation (TnT, Promega)
T2 sequence (P35918 20-1345): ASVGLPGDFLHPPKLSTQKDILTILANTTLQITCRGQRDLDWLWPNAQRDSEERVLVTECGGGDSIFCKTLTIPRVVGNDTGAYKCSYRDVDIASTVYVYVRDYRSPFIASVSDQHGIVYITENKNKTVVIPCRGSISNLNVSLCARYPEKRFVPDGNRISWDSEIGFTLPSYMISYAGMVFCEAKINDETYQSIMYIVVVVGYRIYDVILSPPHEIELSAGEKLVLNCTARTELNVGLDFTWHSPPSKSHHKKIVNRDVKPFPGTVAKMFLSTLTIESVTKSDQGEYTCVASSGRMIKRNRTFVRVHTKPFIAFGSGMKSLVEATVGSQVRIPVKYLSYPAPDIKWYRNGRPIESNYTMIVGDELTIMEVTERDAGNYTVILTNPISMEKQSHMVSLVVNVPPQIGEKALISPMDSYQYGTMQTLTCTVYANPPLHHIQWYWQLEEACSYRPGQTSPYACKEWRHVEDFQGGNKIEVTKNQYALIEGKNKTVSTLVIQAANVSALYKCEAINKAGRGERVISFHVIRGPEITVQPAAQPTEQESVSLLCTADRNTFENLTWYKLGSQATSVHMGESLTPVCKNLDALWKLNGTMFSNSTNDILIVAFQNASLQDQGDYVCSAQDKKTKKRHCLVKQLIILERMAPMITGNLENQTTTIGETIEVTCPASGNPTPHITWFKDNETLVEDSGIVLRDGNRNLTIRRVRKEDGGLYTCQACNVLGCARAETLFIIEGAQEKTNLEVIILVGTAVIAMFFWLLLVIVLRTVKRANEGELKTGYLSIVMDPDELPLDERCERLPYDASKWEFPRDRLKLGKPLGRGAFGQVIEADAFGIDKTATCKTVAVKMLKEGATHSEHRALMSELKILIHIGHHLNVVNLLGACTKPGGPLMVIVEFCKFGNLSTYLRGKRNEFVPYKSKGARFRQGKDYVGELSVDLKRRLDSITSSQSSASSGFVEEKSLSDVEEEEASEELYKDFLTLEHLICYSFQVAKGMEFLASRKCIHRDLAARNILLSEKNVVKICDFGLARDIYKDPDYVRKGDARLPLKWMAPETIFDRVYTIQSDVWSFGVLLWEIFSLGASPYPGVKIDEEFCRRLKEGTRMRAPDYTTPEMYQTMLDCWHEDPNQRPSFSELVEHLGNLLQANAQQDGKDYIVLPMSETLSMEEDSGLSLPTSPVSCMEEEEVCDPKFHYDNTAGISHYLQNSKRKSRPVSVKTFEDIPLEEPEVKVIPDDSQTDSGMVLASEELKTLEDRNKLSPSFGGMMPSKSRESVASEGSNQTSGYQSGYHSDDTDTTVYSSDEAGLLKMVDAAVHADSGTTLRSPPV
Method: as §1, §2, §3

Kit = target: T3, Kit (Mus musculus, UniProt P05532); test: Kinase inhibitor profiling, pEY phosphorylation; format: biochemical
T3 construct: specificity data for proteins generated from a library of eighteen full-length clones; biotin on random lysines (biotin-Lys-tRNA); host or cells: rabbit reticulocyte lysate, coupled transcription/translation (TnT, Promega)
T3 sequence (P05532 25-979): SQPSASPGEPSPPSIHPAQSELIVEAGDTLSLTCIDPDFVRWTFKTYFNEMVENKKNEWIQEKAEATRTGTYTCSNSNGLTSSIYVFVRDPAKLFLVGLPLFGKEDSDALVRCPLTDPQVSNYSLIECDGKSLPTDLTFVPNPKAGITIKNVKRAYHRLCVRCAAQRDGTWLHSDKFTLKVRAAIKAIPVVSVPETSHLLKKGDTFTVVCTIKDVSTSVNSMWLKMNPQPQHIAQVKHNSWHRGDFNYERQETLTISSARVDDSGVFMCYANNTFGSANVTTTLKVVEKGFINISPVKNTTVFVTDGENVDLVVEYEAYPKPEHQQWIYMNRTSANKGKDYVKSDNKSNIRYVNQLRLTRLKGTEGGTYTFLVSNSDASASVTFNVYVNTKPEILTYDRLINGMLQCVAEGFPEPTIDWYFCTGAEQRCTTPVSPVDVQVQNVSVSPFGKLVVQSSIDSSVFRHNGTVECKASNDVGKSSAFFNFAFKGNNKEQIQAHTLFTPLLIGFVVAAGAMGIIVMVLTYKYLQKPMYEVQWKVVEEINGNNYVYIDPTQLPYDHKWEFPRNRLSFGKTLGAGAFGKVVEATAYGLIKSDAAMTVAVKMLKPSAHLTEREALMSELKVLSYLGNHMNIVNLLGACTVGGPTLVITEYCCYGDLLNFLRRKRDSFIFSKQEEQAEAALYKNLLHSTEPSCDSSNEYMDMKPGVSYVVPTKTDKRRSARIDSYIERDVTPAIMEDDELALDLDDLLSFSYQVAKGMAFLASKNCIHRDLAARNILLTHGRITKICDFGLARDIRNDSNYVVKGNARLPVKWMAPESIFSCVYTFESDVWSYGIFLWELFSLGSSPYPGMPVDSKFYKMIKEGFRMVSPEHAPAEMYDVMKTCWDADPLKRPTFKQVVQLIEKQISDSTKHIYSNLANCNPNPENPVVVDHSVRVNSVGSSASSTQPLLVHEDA
Method: as §1
(§4) Proteins were produced using 100 ng of plasmid DNA Mock (Luciferase, Promega) or tyrosine kinases (Fert2 IMAGE ID # 4485050, FGFR1 IMAGE ID # 4037899, Fgfr2 IMAGE ID # 2654352, Src IMAGE ID # 3156400, BMX IMAGE ID # 3919253, LCK IMAGE ID # 4191610, Epha7 IMAGE ID # 3991628, Ephb4 IMAGE ID # 4013934, Tek IMAGE ID # 3482498, HCK IMAGE ID # 4778819, BTK IMAGE ID # 4478463, CSK IMAGE ID # 4398416, SYK IMAGE ID # 3870426, FGR IMAGE ID # 4419973, PTK2B IMAGE ID # 4339456, FRK(IMAGE ID # 4515877, Kit IMAGE ID # 2644960, Fgfr-4 IMAGE ID # 4239139, NTRK3 IMAGE ID # 4181574, Kdr IMAGE ID # 4238984, Incyte Genomics, CA) and immobilized on SA or avidin coated NPT-IPR plates as described in previous examples. The unbound components of the translation reaction (including any endogenous kinases) were removed by 3 washes with TT-buffer (25 mM Tris-HCl buffer pH 7.4 and 0.004% Triton), two five minutes washes with high-salt wash buffer (25 mM Tris-HCl buffer pH 7.4, 0.004% Triton, 1M NaCl and 5 mM DTT) and 3 washes with TT-buffer. […] The mixture was incubated at room temperature for 10 mm before starting the kinase reaction by adding 25 μl of 200 μM ATP in buffer A. This mixture was incubated with intermittent shaking at room temperature for 2 hours to overnight to allow (a) phosphorylation of the pEY substrate and (b) autophosphorylation of the immobilized kinases. Autophosphorylation and phosphorylation of the pEY was measured as described in Examples 7 and 8.
(§5) The ECL signal in control wells produced by tyrosine kinases was compared to the wells containing inhibitor compounds. The signal produced from Mock was negligible.

Fgfr4 = target: T4, Fgfr4 (Mus musculus, UniProt Q03142); test: Kinase inhibitor profiling, pEY phosphorylation; format: biochemical
T4 construct: specificity data for proteins generated from a library of eighteen full-length clones; biotin on random lysines (biotin-Lys-tRNA); host or cells: rabbit reticulocyte lysate, coupled transcription/translation (TnT, Promega)
T4 sequence (Q03142 17-799): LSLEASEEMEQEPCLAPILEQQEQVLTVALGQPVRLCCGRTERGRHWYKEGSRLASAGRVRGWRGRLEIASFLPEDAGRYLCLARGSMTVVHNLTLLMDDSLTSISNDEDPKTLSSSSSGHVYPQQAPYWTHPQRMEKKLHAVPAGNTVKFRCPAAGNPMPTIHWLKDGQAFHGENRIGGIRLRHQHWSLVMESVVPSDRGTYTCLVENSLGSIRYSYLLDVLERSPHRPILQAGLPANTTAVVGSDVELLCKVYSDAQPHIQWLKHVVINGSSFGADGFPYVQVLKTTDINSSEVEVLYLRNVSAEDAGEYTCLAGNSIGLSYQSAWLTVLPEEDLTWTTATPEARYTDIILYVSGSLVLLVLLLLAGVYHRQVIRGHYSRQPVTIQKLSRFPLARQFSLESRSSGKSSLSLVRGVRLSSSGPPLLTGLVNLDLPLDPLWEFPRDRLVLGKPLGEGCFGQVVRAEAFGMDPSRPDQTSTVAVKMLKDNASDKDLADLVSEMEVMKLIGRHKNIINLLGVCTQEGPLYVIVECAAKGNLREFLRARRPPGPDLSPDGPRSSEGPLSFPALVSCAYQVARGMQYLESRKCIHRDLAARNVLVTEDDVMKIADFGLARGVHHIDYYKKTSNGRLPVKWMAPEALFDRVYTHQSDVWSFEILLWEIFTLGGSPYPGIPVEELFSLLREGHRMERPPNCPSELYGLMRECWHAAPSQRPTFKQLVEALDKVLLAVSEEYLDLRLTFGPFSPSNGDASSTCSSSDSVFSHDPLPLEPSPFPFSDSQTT
Method: as §1, §4, §5

EphB4 = target: T5, EphB4 (Mus musculus, UniProt P54761); test: Kinase inhibitor profiling, pEY phosphorylation; format: biochemical
T5 construct: specificity data for proteins generated from a library of eighteen full-length clones; host or cells: rabbit reticulocyte lysate, TnT coupled in vitro transcription/translation (cell-free)
T5 sequence (P54761 16-987): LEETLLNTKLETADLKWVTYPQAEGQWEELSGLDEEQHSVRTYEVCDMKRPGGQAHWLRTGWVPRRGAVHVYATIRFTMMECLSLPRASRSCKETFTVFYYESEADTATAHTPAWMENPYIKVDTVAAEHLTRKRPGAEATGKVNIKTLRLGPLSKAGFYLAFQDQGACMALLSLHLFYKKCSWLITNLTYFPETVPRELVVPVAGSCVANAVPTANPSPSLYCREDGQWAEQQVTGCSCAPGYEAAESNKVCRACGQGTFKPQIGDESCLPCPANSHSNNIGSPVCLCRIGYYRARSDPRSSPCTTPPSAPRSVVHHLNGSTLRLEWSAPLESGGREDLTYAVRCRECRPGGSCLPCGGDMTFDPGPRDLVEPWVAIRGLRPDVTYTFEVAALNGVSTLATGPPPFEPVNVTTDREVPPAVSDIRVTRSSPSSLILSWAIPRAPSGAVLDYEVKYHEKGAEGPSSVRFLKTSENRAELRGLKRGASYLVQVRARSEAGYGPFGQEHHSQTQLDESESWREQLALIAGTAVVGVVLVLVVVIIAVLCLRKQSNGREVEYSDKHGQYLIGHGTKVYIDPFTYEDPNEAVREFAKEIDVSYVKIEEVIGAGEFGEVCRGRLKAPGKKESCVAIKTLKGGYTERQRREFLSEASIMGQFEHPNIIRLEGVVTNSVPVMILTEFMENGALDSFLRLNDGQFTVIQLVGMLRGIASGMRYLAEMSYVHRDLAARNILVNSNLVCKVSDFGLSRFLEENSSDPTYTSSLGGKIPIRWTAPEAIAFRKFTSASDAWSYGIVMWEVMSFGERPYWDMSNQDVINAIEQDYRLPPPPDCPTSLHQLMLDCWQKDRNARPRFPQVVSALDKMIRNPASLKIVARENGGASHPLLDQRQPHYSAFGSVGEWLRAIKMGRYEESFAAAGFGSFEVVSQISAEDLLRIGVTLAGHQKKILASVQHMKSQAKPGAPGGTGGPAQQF
Method: as §1, §4, §5

SMILES	Inhibition specificity towards pEY phosphorylation at 10X IC50, BTK (BTK)	pIC50 [1]	Inhibition specificity towards pEY phosphorylation at 10X IC50, Kdr (Kdr)	Inhibition specificity towards pEY phosphorylation at 10X IC50, Kit (Kit)	Inhibition specificity towards pEY phosphorylation at 10X IC50, Fgfr4 (Fgfr4)	Inhibition specificity towards pEY phosphorylation at 10X IC50, EphB4 (EphB4)
CC(C)(C)c1cc(/C=C(\C#N)C(N)=S)cc(C(C)(C)C)c1O [AG879]	L (low inhibition (“L”=between 50–75% of the activity remaining))	5.00	–	–	–	–
C/C(O)=C(\C#N)C(=O)Nc1cc(Br)ccc1Br [LFM-A13]	–	4.76	L (low inhibition (“L”=between 50–75% of the activity remaining))	M (medium inhibition (“M”=between 25 to 50% of the activity remaining))	M (medium inhibition (“M”=between 25 to 50% of the activity remaining))	–
N#C/C(=C/c1ccc(O)c(O)c1)C(=O)NCc1ccccc1 [AG-490]	L (low inhibition (“L”=between 50–75% of the activity remaining))	7.00	–	–	–	–
CC(C)(C)c1cc(C=C(C#N)C#N)cc(C(C)(C)C)c1O [AG-17]	–	6.30	–	L (low inhibition (“L”=between 50–75% of the activity remaining))	–	–
COc1cc2ncc(-c3ccccc3)nc2cc1OC [AG-1296]	–	6.00	–	M (medium inhibition (“M”=between 25 to 50% of the activity remaining))	–	L (low inhibition (“L”=between 50–75% of the activity remaining))
O=c1c(-c2ccc(O)cc2)coc2cc(O)cc(O)c12 [Genistein]	–	–	–	M (medium inhibition (“M”=between 25 to 50% of the activity remaining))	–	L (low inhibition (“L”=between 50–75% of the activity remaining))
O=C(O)c1cc(N(Cc2ccccc2O)Cc2cc(O)ccc2O)ccc1O [Lavendustin A]	–	7.96	–	L (low inhibition (“L”=between 50–75% of the activity remaining))	–	–
